#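 Method: 48-hour compound exposure of cells in 96-well plates, five concentrations, linear interpolation of endpoints. The concentration for 50% growth inhibition is given as GI50. At the TGI there is no net growth.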
# Columns and labels:
# Assay in all cases: NCI-60 cell line screen, 48 h
# 786-0 renal = test system: 786-0 renal
# A498 renal = test system: A498 renal
# A549 NSCLC = test system: A549 NSCLC
# ACHN renal = test system: ACHN renal
# BT-549 breast = test system: BT-549 breast
# CAKI-1 renal = test system: CAKI-1 renal
# CCRF-CEM leukemia = test system: CCRF-CEM leukemia
# COLO 205 colon = test system: COLO 205 colon
# DU-145 prostate = test system: DU-145 prostate
# HCC-2998 colon = test system: HCC-2998 colon
# HCT-116 colon = test system: HCT-116 colon
# HCT-15 colon = test system: HCT-15 colon
# HL-60(TB) leukemia = test system: HL-60(TB) leukemia
# HOP-62 NSCLC = test system: HOP-62 NSCLC
# HOP-92 NSCLC = test system: HOP-92 NSCLC
# HS 578T breast = test system: HS 578T breast
# HT29 colon = test system: HT29 colon
# IGROV1 ovarian = test system: IGROV1 ovarian
# K-562 leukemia = test system: K-562 leukemia
# KM12 colon = test system: KM12 colon
# LOX IMVI melanoma = test system: LOX IMVI melanoma
# M14 melanoma = test system: M14 melanoma
# MALME-3M melanoma = test system: MALME-3M melanoma
# MCF7 breast = test system: MCF7 breast
# MDA-MB-231 breast = test system: MDA-MB-231 breast
# MDA-MB-435 = test system: MDA-MB-435
# MOLT-4 leukemia = test system: MOLT-4 leukemia
# NCI-H226 lung = test system: NCI-H226 lung
# NCI-H23 lung = test system: NCI-H23 lung
# NCI-H460 lung = test system: NCI-H460 lung
# NCI-H522 lung = test system: NCI-H522 lung
# NCI/ADR-RES ovarian = test system: NCI/ADR-RES ovarian
# OVCAR-3 ovarian = test system: OVCAR-3 ovarian
# OVCAR-4 ovarian = test system: OVCAR-4 ovarian
# OVCAR-5 ovarian = test system: OVCAR-5 ovarian
# OVCAR-8 ovarian = test system: OVCAR-8 ovarian
# PC-3 prostate = test system: PC-3 prostate
# RPMI-8226 leukemia = test system: RPMI-8226 leukemia
# RXF 393 renal = test system: RXF 393 renal
# SF-268 CNS = test system: SF-268 CNS
# SF-539 CNS = test system: SF-539 CNS
# SK-MEL-2 melanoma = test system: SK-MEL-2 melanoma
# SK-MEL-28 melanoma = test system: SK-MEL-28 melanoma
# SK-MEL-5 melanoma = test system: SK-MEL-5 melanoma
# SK-OV-3 ovarian = test system: SK-OV-3 ovarian
# SN12C renal = test system: SN12C renal
# SNB-19 CNS = test system: SNB-19 CNS
# SR leukemia = test system: SR leukemia
# SW-620 colon = test system: SW-620 colon
# T-47D breast = test system: T-47D breast
# TK-10 renal = test system: TK-10 renal
# U251 CNS = test system: U251 CNS
# UACC-257 melanoma = test system: UACC-257 melanoma
# UACC-62 melanoma = test system: UACC-62 melanoma
# UO-31 renal = test system: UO-31 renal
structure (smiles),measurement,setting,value
O=S(=O)(c1ccc(NC(=S)NC23CC4CC(CC(C4)C2)C3)cc1)N1CCCCC1,GI50,786-0 renal,4.14 µM
same,TGI,786-0 renal,> 100 µM
same,GI50,A498 renal,2.04 µM
same,TGI,A498 renal,7.79 µM
same,GI50,A549 NSCLC,3.07 µM
same,TGI,A549 NSCLC,> 100 µM
same,GI50,ACHN renal,3.12 µM
same,TGI,ACHN renal,> 100 µM
same,GI50,BT-549 breast,3 µM
same,TGI,BT-549 breast,9.4 µM
same,GI50,CAKI-1 renal,3.06 µM
same,TGI,CAKI-1 renal,> 100 µM
same,GI50,CCRF-CEM leukemia,3.13 µM
same,TGI,CCRF-CEM leukemia,> 100 µM
same,GI50,COLO 205 colon,1.82 µM
same,TGI,COLO 205 colon,3.22 µM
same,GI50,DU-145 prostate,4.09 µM
same,TGI,DU-145 prostate,> 100 µM
same,GI50,HCC-2998 colon,3.29 µM
same,TGI,HCC-2998 colon,19.9 µM
same,GI50,HCT-116 colon,3.34 µM
same,TGI,HCT-116 colon,> 100 µM
same,GI50,HCT-15 colon,3.22 µM
same,TGI,HCT-15 colon,> 100 µM
same,GI50,HL-60(TB) leukemia,2.65 µM
same,TGI,HL-60(TB) leukemia,6.24 µM
same,GI50,HOP-62 NSCLC,3.67 µM
same,TGI,HOP-62 NSCLC,> 100 µM
same,GI50,HOP-92 NSCLC,1.63 µM
same,TGI,HOP-92 NSCLC,5 µM
same,GI50,HS 578T breast,4.87 µM
same,TGI,HS 578T breast,> 100 µM
same,GI50,HT29 colon,2.49 µM
same,TGI,HT29 colon,5.84 µM
same,GI50,IGROV1 ovarian,4.63 µM
same,TGI,IGROV1 ovarian,> 100 µM
same,GI50,K-562 leukemia,3.6 µM
same,TGI,K-562 leukemia,> 100 µM
same,GI50,KM12 colon,3.65 µM
same,TGI,KM12 colon,42.2 µM
same,GI50,LOX IMVI melanoma,3.71 µM
same,TGI,LOX IMVI melanoma,> 100 µM
same,GI50,M14 melanoma,3.36 µM
same,TGI,M14 melanoma,22.7 µM
same,GI50,MALME-3M melanoma,2.76 µM
same,TGI,MALME-3M melanoma,8.3 µM
same,GI50,MCF7 breast,3.18 µM
same,TGI,MCF7 breast,> 100 µM
same,GI50,MDA-MB-231 breast,2.41 µM
same,TGI,MDA-MB-231 breast,5.6 µM
same,GI50,MDA-MB-435,3.49 µM
same,TGI,MDA-MB-435,> 100 µM
same,GI50,MOLT-4 leukemia,3.24 µM
same,TGI,MOLT-4 leukemia,11.4 µM
same,GI50,NCI-H226 lung,4.05 µM
same,TGI,NCI-H226 lung,> 100 µM
same,GI50,NCI-H23 lung,3.5 µM
same,TGI,NCI-H23 lung,> 100 µM
same,GI50,NCI-H460 lung,3.35 µM
same,TGI,NCI-H460 lung,> 100 µM
same,GI50,NCI-H522 lung,2.7 µM
same,TGI,NCI-H522 lung,6.62 µM
same,GI50,NCI/ADR-RES ovarian,3.46 µM
same,TGI,NCI/ADR-RES ovarian,> 100 µM
same,GI50,OVCAR-3 ovarian,3.51 µM
same,TGI,OVCAR-3 ovarian,21.1 µM
same,GI50,OVCAR-4 ovarian,4.01 µM
same,TGI,OVCAR-4 ovarian,> 100 µM
same,GI50,OVCAR-5 ovarian,3.53 µM
same,TGI,OVCAR-5 ovarian,> 100 µM
same,GI50,OVCAR-8 ovarian,3.22 µM
same,TGI,OVCAR-8 ovarian,> 100 µM
same,GI50,PC-3 prostate,2.55 µM
same,TGI,PC-3 prostate,8.94 µM
same,GI50,RPMI-8226 leukemia,2.15 µM
same,TGI,RPMI-8226 leukemia,5.86 µM
same,GI50,RXF 393 renal,2.37 µM
same,TGI,RXF 393 renal,6.6 µM
same,GI50,SF-268 CNS,4.12 µM
same,TGI,SF-268 CNS,> 100 µM
same,GI50,SF-539 CNS,4.19 µM
same,TGI,SF-539 CNS,> 100 µM
same,GI50,SK-MEL-2 melanoma,3.29 µM
same,TGI,SK-MEL-2 melanoma,7.39 µM
same,GI50,SK-MEL-28 melanoma,5.23 µM
same,TGI,SK-MEL-28 melanoma,> 100 µM
same,GI50,SK-MEL-5 melanoma,1.75 µM
same,TGI,SK-MEL-5 melanoma,3.31 µM
same,GI50,SK-OV-3 ovarian,2.98 µM
same,TGI,SK-OV-3 ovarian,9.26 µM
same,GI50,SN12C renal,3.23 µM
same,TGI,SN12C renal,> 100 µM
same,GI50,SNB-19 CNS,4.02 µM
same,TGI,SNB-19 CNS,> 100 µM
same,GI50,SR leukemia,2.69 µM
same,TGI,SR leukemia,> 100 µM
same,GI50,SW-620 colon,3.82 µM
same,TGI,SW-620 colon,> 100 µM
same,GI50,T-47D breast,3.28 µM
same,TGI,T-47D breast,> 100 µM
same,GI50,TK-10 renal,3.27 µM
same,TGI,TK-10 renal,64.1 µM
same,GI50,U251 CNS,2.92 µM
same,TGI,U251 CNS,13.3 µM
same,GI50,UACC-257 melanoma,2.49 µM
same,TGI,UACC-257 melanoma,6.8 µM
same,GI50,UACC-62 melanoma,3.22 µM
same,TGI,UACC-62 melanoma,> 100 µM
same,GI50,UO-31 renal,2.82 µM
same,TGI,UO-31 renal,> 100 µM

# From PubChem BioAssay (NCI)
